Test results: the supplement of paper PMC10307832

Legend:
Experiment in all cases: relative viability (nuclei count vs DMSO), 5 days (fraction); higher = more cells survive
[1] = compound: CC1CC(=O)N(C2=CN=C(N=C2N1C3CCCC3)NC4=C(C=C(C=C4)C(=O)NC5CCN(CC5)C)OC)C [NPK76-II-72-1] + CCNC(=O)c1noc(-c2cc(C(C)C)c(O)cc2O)c1-c1ccc(CN2CCOCC2)cc1 [Luminespib] (partner 0.01 µM)
Summary of the method: (§1)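 One day after seeding in 1536-well plates, lung cancer cell lines were dosed by pin tool. Dosing was either single-drug or a fixed anchor-drug dose plus five library-drug doses (not always all listed) in √10 steps. After 5 days, nuclei were stained in one fix-and-stain step and counted on 4× images, and relative viability is the nuclei count of treated wells over that of vehicle wells, given as the median of duplicate plates.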

[2] = compound: CC1CC(=O)N(C2=CN=C(N=C2N1C3CCCC3)NC4=C(C=C(C=C4)C(=O)NC5CCN(CC5)C)OC)C [NPK76-II-72-1] + C[C@@H](Oc1cc(-c2cnn(C3CCNCC3)c2)cnc1N)c1c(Cl)ccc(F)c1Cl [Crizotinib] (partner 1 µM)
Summary of the method: as §1

[3] = compound: CC1CC(=O)N(C2=CN=C(N=C2N1C3CCCC3)NC4=C(C=C(C=C4)C(=O)NC5CCN(CC5)C)OC)C [NPK76-II-72-1] + Nc1nc2[nH]cc(CCc3ccc(C(=O)N[C@@H](CCC(=O)O)C(=O)O)cc3)c2c(=O)[nH]1 [Pemetrexed] (partner 0.2 µM)
Summary of the method: as §1

BI-2536 + OSI-027 = compound: CC[C@@H]1C(=O)N(C)c2cnc(Nc3ccc(C(=O)NC4CCN(C)CC4)cc3OC)nc2N1C1CCCC1 [BI-2536] + COc1cccc2cc(-c3nc([C@H]4CC[C@H](C(=O)O)CC4)n4ncnc(N)c34)[nH]c12 [OSI-027] (partner 0.5 µM)
Summary of the method: as §1

Row | Cell Line | relative viability ([1]; first compound 0.01 µM) | relative viability ([1]; first compound 0.03162 µM) | relative viability ([1]; first compound 0.1 µM) | relative viability ([1]; first compound 0.3162 µM) | relative viability ([1]; first compound 1 µM) | relative viability ([2]; first compound 0.01 µM) | relative viability ([2]; first compound 0.03162 µM) | relative viability ([2]; first compound 0.1 µM) | relative viability ([2]; first compound 0.3162 µM) | relative viability ([2]; first compound 1 µM) | relative viability ([3]; first compound 0.01 µM) | relative viability ([3]; first compound 0.03162 µM) | relative viability ([3]; first compound 0.1 µM) | relative viability ([3]; first compound 0.3162 µM) | relative viability ([3]; first compound 1 µM) | relative viability (BI-2536 + OSI-027; first compound 0.01 µM) | relative viability (BI-2536 + OSI-027; first compound 0.03162 µM) | relative viability (BI-2536 + OSI-027; first compound 0.1 µM) | relative viability (BI-2536 + OSI-027; first compound 0.3162 µM) | relative viability (BI-2536 + OSI-027; first compound 1 µM)
1 | NCI-H2087 | 0.154 | 0.16 | 0.136 | 0.158 | 0.185 | 0.844 | 0.786 | 0.82 | 0.902 | 1.01 | 0.66 | 0.653 | 0.588 | 0.661 | 0.63 | 0.564 | 0.541 | 0.186 | 0.101 | 0.0808
2 | LU99A | 0.261 | 0.212 | 0.304 | 0.238 | 0.278 | 0.563 | 0.596 | 0.649 | 0.508 | 0.584 | 0.181 | 0.172 | 0.205 | 0.163 | 0.22 | 0.281 | 0.28 | 0.181 | 0.161 | 0.17
3 | NCI-H647 | 0.189 | 0.188 | 0.143 | 0.202 | 0.23 | 1.06 | 1.15 |  | 0.966 | 1.06 | 0.189 | 0.174 | 0.171 | 0.172 | 0.198 | 0.814 | 0.807 | 0.529 | 0.0918 | 0.0985
4 | NCI-H1755 | 0.579 | 0.563 | 0.264 | 0.371 | 0.503 | 0.866 | 0.864 | 0.838 | 0.837 | 0.939 | 0.385 | 0.405 | 0.464 | 0.544 | 0.405 | 0.707 | 0.692 | 0.324 | 0.245 | 0.275
5 | NCI-H3122 | 0.095 | 0.101 | 0.113 | 0.0814 | 0.079 | 0.268 | 0.272 | 0.282 | 0.294 | 0.329 | 0.209 | 0.191 | 0.181 | 0.195 | 0.209 | 0.944 | 0.16 | 0.13 | 0.17 | 0.213
6 | PC-14 | 0.133 | 0.125 | 0.239 | 0.132 | 0.164 | 0.872 | 0.944 | 0.904 | 0.809 | 1.03 | 0.124 | 0.126 | 0.125 | 0.123 | 0.162 | 0.906 | 0.546 | 0.111 | 0.032 | 0.0346
7 | NCI-H2347 | 0.529 | 0.593 | 0.459 | 0.526 | 0.437 | 0.742 | 0.698 | 0.715 | 0.718 | 0.944 | 0.502 | 0.42 | 0.417 | 0.403 | 0.354 |  | 0.464 | 0.346 | 0.285 | 0.276
8 | NCI-H2228 | 0.177 | 0.143 | 0.174 | 0.133 | 0.166 | 0.404 | 0.611 | 0.48 | 0.39 | 0.711 | 0.307 | 0.359 | 0.33 | 0.339 | 0.343 | 0.576 | 0.437 | 0.141 | 0.124 | 0.26
9 | NCI-H1563 | 0.5 | 0.627 | 0.578 | 0.519 | 0.504 | 0.875 | 0.905 | 0.84 | 0.825 | 0.932 | 0.581 | 0.767 | 0.839 | 0.604 | 0.767 | 0.811 | 0.792 | 0.704 | 0.535 | 0.541
10 | EKVX | 0.735 | 0.863 | 0.912 | 0.888 | 0.95 | 0.787 | 1.16 | 0.936 | 0.832 | 0.922 | 0.358 | 0.447 | 0.435 |  | 0.387 | 0.717 | 0.731 | 0.66 | 0.258 | 0.149
11 | HOP-62 | 0.975 | 1.04 | 0.885 | 0.789 | 0.992 | 0.85 | 0.907 | 0.75 | 0.896 | 0.982 | 0.291 | 0.374 | 0.296 | 0.245 | 0.32 | 0.803 | 0.724 | 0.526 | 0.268 | 0.181
12 | NCI-H2126 | 0.88 | 0.907 | 0.933 | 0.814 | 0.901 | 1.02 | 1.07 | 0.965 | 1.01 | 1.06 | 0.678 | 0.809 | 0.617 | 0.672 | 0.736 | 0.832 | 0.641 | 0.472 | 0.276 | 0.218
13 | SW 1573 | 0.333 | 0.218 | 0.278 | 0.383 | 0.21 | 0.637 | 0.891 | 0.77 | 0.686 | 0.912 | 0.751 | 0.829 | 0.821 | 0.849 | 0.824 | 0.681 | 0.44 | 0.133 | 0.0966 | 0.0839
14 | NCI-H358 | 0.21 | 0.431 | 0.521 |  | 0.839 | 0.606 | 0.604 | 0.604 | 0.437 | 0.651 | 0.179 | 0.186 | 0.184 |  | 0.21 | 0.758 | 0.477 | 0.0848 | 0.0717 | 0.0809
15 | EPLC-272H | 0.161 |  | 0.313 | 0.264 | 0.58 | 0.865 | 0.865 | 1.02 | 0.892 | 0.91 | 0.338 | 0.303 | 0.303 | 0.311 | 0.335 | 0.35 | 0.21 | 0.165 | 0.162 | 0.137
16 | PC-3 [JPC-3] | 0.622 | 0.705 | 0.638 | 0.713 | 0.728 | 0.943 | 0.958 | 0.998 | 0.938 | 0.995 | 0.963 |  | 1.06 | 1.18 | 1.1 | 0.828 | 0.581 | 0.333 | 0.179 | 0.16
